Experimental data from US11014904B2, “1,2,4-triazine-3-amine derivative, preparation method therefor, and use thereof in medicine” (Jiangsu Hengrui Medicine Co., Ltd., priority 2017, dated 2021).

What was measured:
[1] = target: T1, adenosine A2a receptor (A2aR) (Homo sapiens, UniProt P29274); assay: Inhibition of the adenosine A2a receptor cAMP signaling pathway in CHO-K1/A2aR cells (HTRF); format: cell-based; conditions: CHO-K1/A2aR cells, cAMP, NECA 20 nM; Table 1
T1 construct: expressed in transfected cells; host or cells: CHO-K1
T1 sequence (P29274 whole entry): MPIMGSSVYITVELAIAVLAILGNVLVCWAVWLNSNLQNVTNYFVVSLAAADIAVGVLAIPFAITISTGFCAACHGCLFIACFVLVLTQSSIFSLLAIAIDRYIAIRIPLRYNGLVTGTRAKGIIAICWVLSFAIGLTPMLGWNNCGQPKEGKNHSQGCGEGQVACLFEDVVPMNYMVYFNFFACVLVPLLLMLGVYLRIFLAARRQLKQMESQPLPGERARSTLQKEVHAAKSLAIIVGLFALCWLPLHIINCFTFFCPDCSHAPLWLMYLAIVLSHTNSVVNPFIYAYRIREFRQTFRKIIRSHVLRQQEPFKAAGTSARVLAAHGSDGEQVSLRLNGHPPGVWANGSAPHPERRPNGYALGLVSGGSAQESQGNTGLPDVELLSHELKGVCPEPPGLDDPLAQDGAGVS
Text: (§1) Determination of the inhibition activity of the compounds of the present invention on the adenosine A2a receptor (A2aR) cAMP signaling pathway, the adenosine A2b receptor (A2bR) cAMP signaling pathway, the adenosine A1 receptor (A1R) cAMP signaling pathway and the adenosine A3 receptor (A3R) cAMP signaling pathway.
(§2) The inhibition activity of the compounds of the present invention on the adenosine A2a receptor (A2aR) cAMP signaling pathway, the adenosine A2b receptor cAMP signaling pathway, the adenosine A1 receptor cAMP signaling pathway and the adenosine A3 receptor cAMP signaling pathway was determined by the following method. The experimental method is briefly described as follows:
2.1 Adenosine A2a receptor
CHO-K1/A2aR cells were cultured in DMEM/F12 medium containing 10% fetal bovine serum and 800 μg/ml bleomycin. The cells were digested with the cell separation buffer during the experiment. The cells were resuspended in the balanced salt buffer containing 20 mM HEPES and 0.1% bovine serum albumin and counted, and the cell density was adjusted to 10^6 cells/ml. In the 384-well plate, each well was added with 5 μl of cell suspension, and 2.5 μl of test compound (4× concentration) formulated with the balanced salt buffer containing 20 mM HEPES, 0.1% bovine serum albumin, 54 μM rolipram and 2.7 U/ml adenosine deaminase, and the plate was incubated at room temperature for 30 minutes. Each well was then added with 2.5 μl of […] (4× concentration) formulated with the balanced salt buffer containing 20 mM HEPES, 0.1% bovine serum albumin, 54 μM rolipram and 2.7 U/ml adenosine deaminase, and the plate was incubated at room temperature for 30 minutes. The final concentrations of the compounds were: 10000, 2000, 400, 80, 16, 3.2, 0.64, 0.128, 0.0256, 0.00512, and 0.001024 nM. The final concentration of […] was 20 nM. Intracellular cAMP concentration was detected with the cAMP dynamic 2 kit. cAMP-d2 and Anti-cAMP-Eu-Cryptate were diluted respectively with the cAMP lysis buffer at a ratio of 1:4. Each well was added with 5 μl of diluted cAMP-d2, followed by addition of 5 μl of diluted Anti-cAMP-Eu-Cryptate, and the plate was incubated at room temperature in the dark for 1 hour. The HTRF signal values were read by the PHERAstar multi-function microplate reader.

[2] = target: T2, adenosine A2b receptor (A2bR) (Homo sapiens, UniProt P29275); assay: Inhibition of the adenosine A2b receptor cAMP signaling pathway in CHO-K1/A2bR cells (HTRF); format: cell-based; conditions: ethyl carbazole 1 μM, Table 2
T2 construct: expressed in transfected cells; host or cells: CHO-K1
T2 sequence (P29275 1-332): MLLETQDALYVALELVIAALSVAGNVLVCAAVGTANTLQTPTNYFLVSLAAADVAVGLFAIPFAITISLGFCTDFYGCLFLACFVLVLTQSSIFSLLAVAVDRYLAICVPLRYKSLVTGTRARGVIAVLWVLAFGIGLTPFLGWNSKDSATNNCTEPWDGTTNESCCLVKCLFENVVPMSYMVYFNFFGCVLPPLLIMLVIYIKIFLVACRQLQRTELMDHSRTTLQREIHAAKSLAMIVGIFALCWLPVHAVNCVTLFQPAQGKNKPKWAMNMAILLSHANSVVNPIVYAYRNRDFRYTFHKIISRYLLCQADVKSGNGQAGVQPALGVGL
Text: as §1, §2
2.2 Adenosine A2b Receptor
CHO-K1/A2bR cells were cultured in DMEM/F12 medium containing 10% fetal bovine serum and 1 mg/ml G418. The cells were digested with the cell separation buffer during the experiment. The cells were resuspended in the balanced salt buffer containing 20 mM HEPES and 0.1% bovine serum albumin and counted, and the cell density was adjusted to 10^6 cells/ml. In the 384-well plate, each well was added with 5 μl of cell suspension, and 2.5 μl of test compound (4× concentration) formulated with the balanced salt buffer containing 20 mM HEPES, 0.1% bovine serum albumin, 54 μM rolipram and 2.7 U/ml adenosine deaminase, and the plate was incubated at room temperature for 30 minutes. Each well was then added with 2.5 μl of […] (4× concentration) (Torcis, 1691/10) formulated with the balanced salt buffer containing 20 mM HEPES, 0.1% bovine serum albumin, 54 μM rolipram and 2.7 U/ml adenosine deaminase, and the plate was incubated at room temperature for 30 minutes. The final concentrations of the compounds were: 100000, 10000, 1000, 100, 10, 1, 0.1 and 0 nM. The final concentration of […] was 1 μM. Intracellular cAMP concentration was detected with the cAMP dynamic 2 kit. cAMP-d2 and Anti-cAMP-Eu-Cryptate were diluted respectively with the cAMP lysis buffer at a ratio of 1:4. Each well was added with 5 μl of diluted cAMP-d2, followed by addition of 5 μl of diluted Anti-cAMP-Eu-Cryptate, and the plate was incubated at room temperature in the dark for 1 hour. The HTRF signal values were read by the PHERAstar multi-function microplate reader.

| Structure (SMILES) | IC50 [1] [nM] | IC50 [2] [nM] |
| --- | --- | --- |
| Nc1nnc(-c2cc(Cl)c3ncccc3c2)c(-c2ccccc2)n1 [Example 4, 6-(8-Chloroquinolin-6-yl)-5-phenyl-1,2,4-triazin-3-amine] | 0.7 | 4 |
| Cc1ccc(-c2nc(N)nnc2-c2cc(C)c3ncccc3c2)o1 [Example 5, 5-(5-Methylfuran-2-yl)-6-(8-methylquinolin-6-yl)-1,2,4-triazin-3-amine] | 0.4 | 46 |
| Cc1ccnc2ccc(-c3nnc(N)nc3-c3ccccc3)cc12 [Example 14, 6-(4-Methylquinolin-6-yl)-5-phenyl-1,2,4-triazin-3-amine] | 0.1 | 3 |
| COc1ccnc2ccc(-c3nnc(N)nc3-c3ccccc3)cc12 [Example 23, 6-(4-Methoxyquinolin-6-yl)-5-phenyl-1,2,4-triazin-3-amine] | 0.4 | 17 |
| COc1cc(-c2nnc(N)nc2-c2ccccc2)cc2cccnc12 [Example 25, 6-(8-Methoxyquinolin-6-yl)-5-phenyl-1,2,4-triazin-3-amine] | 1.5 | 4 |
| Cc1ncnc2ccc(-c3nnc(N)nc3-c3ccc(Cl)cc3)cc12 [Example 46, 5-(4-Chlorophenyl)-6-(4-methylquinazolin-6-yl)-1,2,4-triazin-3-amine] | 1.6 | 18 |
